Assay results from US9504674B2, “TrkB agonists and methods of use” (EMORY UNIVERSITY, priority 2010, dated 2016).
Several values for one entry are separate records, joined by “and”; a condition that tells them apart may be missing. Equal entries are not always repeated. Entries after “also recorded” stand apart in the source; their conditions may differ.

What was measured:
Akt = Akt activation / p-Akt 473 ELISA in primary cortical neurons; format: cell-based, rat; settings: 500 nM
Procedure: The cell lysates (20 μg/sample) from the neurons treated with various indicated drugs were analyzed by p-Akt ELISA. The quantitative p-Akt activity in ELISA correlated with TrkB activity. Results were expressed as mean (SEM(*P<0.05, compared with the vehicle control group, Student t test, n=3).
Phospho-Akt ELISA assay by the synthetic compounds in cortical neurons. Primary cortical cultures from […] rat embryos were treated with 500 nMof various 7,8-DHF derivatives. The cell lysates were analyzed by the ELISA (left panel) (*, P<0.05; ***, P<0.001 vs vehicle, Student's t test). Different doses of 4′-DMA-7,8-DHF and 7,8-DHF were incubated with primary cortical neurons for 15 min. The cell lysates (20 μg) were analyzed with p-Akt ELISA (right panel) (*, P<0.05; **, P<0.01; ***, P<0.001 vs control; one-way ANOVA: b, P<0.01; c, P<0.001 vs 7,8-DHF at same concentration, Student's t test). […]
7,8-dihydroxyflavone (7,8-DHF) is a small molecular TrkB agonist. […] The cell lysates were analyzed by immunoblotting. […]
To compare the TrkB activation by these synthetic compounds, primary cortical cultures were prepared. […] TrkB activation was monitored at different time points.
Additional compounds are listed as designated from a to m (FIG. 6A). […] The cell lysates were analyzed by immunoblotting. […] Moreover, p-Akt ELISA was monitored to quantitatively analyze the agonistic activities of these compounds.

TrkB [1] = molecular target: T1, TrkB (Rattus norvegicus, UniProt Q63604); assay: TrkB phosphorylation in primary rat cortical neurons (immunoblotting); format: cell-based; settings: for TrkB activation (phosphorylation) compared to vehicle control: 500 nM compound, 20 min, primary rat cortical neurons, immunoblotting; for minimal concentration triggering TrkB activation (titration assay): primary cortical neurons, different doses
T1 construct: endogenous in cells; host or cells: primary rat cortical neurons (E17 embryos, 13 DIV)
T1 sequence (Q63604 32-821): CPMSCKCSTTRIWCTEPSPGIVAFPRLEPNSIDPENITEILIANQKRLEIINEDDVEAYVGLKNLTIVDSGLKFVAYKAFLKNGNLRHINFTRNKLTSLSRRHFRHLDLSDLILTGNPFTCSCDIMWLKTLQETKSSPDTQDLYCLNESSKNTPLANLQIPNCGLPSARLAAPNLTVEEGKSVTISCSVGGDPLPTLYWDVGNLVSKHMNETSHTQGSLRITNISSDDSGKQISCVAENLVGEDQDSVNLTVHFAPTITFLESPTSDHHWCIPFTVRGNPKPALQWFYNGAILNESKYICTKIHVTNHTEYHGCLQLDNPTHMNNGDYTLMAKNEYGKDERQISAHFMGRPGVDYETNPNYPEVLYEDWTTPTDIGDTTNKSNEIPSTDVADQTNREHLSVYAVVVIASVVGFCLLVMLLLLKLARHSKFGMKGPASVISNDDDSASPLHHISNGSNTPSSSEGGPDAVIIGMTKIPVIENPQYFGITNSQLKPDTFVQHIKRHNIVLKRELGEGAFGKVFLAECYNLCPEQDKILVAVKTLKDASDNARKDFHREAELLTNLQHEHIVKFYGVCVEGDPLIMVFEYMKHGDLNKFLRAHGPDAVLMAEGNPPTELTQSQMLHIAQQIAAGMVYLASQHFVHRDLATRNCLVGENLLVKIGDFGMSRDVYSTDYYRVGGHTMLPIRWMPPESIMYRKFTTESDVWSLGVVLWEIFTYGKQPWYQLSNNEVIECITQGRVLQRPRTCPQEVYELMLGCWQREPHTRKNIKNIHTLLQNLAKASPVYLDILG
Procedure: (§1) Primary rat cortical neurons from E17 embryos (13 DIV) were treated with 500 nM various chemicals for 15 min. The neuronal cell lysates were collected and resolved on 10% SDS-PAGE. Immunoblotting was conducted with various antibodies. p-TrkB Y817 antibody was employed at 1:20000-40000 dilution.
as §1, with “days in vitro (DIV))” for “DIV)”, “1:20,000-40,000 dilution (top panel). Equal amount of TrkB was loaded in all of the samples (middle panel). P-Akt 473 ELISA analysis with the neuronal lysates (bottom panel).” for “1:20000-40000 dilution.”
7,8-dihydroxyflavone (7,8-DHF) is a small molecular TrkB agonist. Preliminary structure-activity relationship study (SAR) supports that 7,8-catechol moiety is essential for the agonistic effect by 7,8-DHF. To explore the structure-activity relationship (SAR) in depth, the TrkB stimulatory activity was examined by numerous flavonoid derivatives. The numeric positions and each ring's nomenclature are designated (FIG. 1A). Compounds were dissolved in DMSO, then diluted into […] with 1× PBS (final vehicle contains 10% DMSO/PBS) (FIG. 1B). Primary rat cortical neurons were treated with 500 nM compounds for 20 min. The cell lysates were analyzed by immunoblotting. […] Downstream activation of the TrkB target Akt was tightly correlated with TrkB activation patterns by these derivatives (FIG. 1C, bottom panel). As observed, the hydroxy groups on B ring can regulate 7,8-DHF's stimulatory activity on TrkB receptor. As 2′-hydroxy, especially 3′-hydroxy group, elevates the agonistic effect, whereas 4′-hydroxy group diminishes its stimulatory effect.
(§2) To compare the TrkB activation by these synthetic compounds, primary cortical cultures were prepared. Cortical neurons were treated with 500 nM of various compounds for 20 min and cell lysates were collected. […] Replacing the H-bond acceptor O atom with hydrogen bond donor NH abolishes its stimulatory effect. […] On the other hand, 7,8-DHF provoked TrkB activation with the minimal concentration of 100 nM (FIG. 2B, right panels). To further study 4′-DMA-7,8-DHF's kinetics on TrkB activation, primary neurons were treated for various time points. 4′-DMA-7,8-DHF swiftly activated TrkB as soon as 5 minutes following treatment. […] To compare the stimulatory effect on TrkB receptor in mouse brains, 1 mg/kg of the synthesized derivatives were injected into C57BL/6J mice. TrkB activation was monitored at different time points.
Additional compounds are listed as designated from a to m (FIG. 6A). The compounds were dissolved in DMSO, then diluted into 500 μM with 1× PBS (final vehicle contains 10% DMSO/PBS). The primary rat cortical neurons (13 DIV) were treated with 500 nM compounds for 20 min. The cell lysates were analyzed by immunoblotting. […] Moreover, p-Akt ELISA was monitored to quantitatively analyze the agonistic activities of these compounds.

TrkB [2] = molecular target: T2, TrkB (Mus musculus, UniProt P15209); assay: TrkB activation in mouse brain after single oral administration (immunoblotting); format: in vivo; settings: 1 mg/kg oral, C57BL/6J mice
T2 construct: from tissue; host or cells: brain of wild-type C57BL/6J mice
T2 sequence (P15209 32-821): as the sequence (Q63604 32-821) above, with M3T, T9S, T10A, I32V, K63R, G84S, T153M, I185L, T394S, N770S counted along it
Procedure: Rat primary neurons were treated with 500 nM. 4′-DMA-7,8-DHF from various time points. The neuronal lysates were analyzed with various antibodies. 4′-DMA-7,8-DHF rapidly activated TrkB and its downstream signaling cascades (left panels). […] One mg/kg of 4′-DMA-7,8-DHF and 7,8-DHF were orally administrated into C57 BL/6J mice and TrkB phosphorylation and its downstream signaling cascades including Akt and MAPK in mouse brain were analyzed by immunoblotting at various time points. TrkB activation by 4′-DMA-7,8-DHF peaked at 4 h, whereas the maximal TrkB activation by 7,8-DHF in mouse brain occurred at 1-2 h (middle panels).
1 mg/kg of various compounds were orally administrated into C57 BL/6J mice and TrkB phosphorylation and its downstream signaling cascades including Akt and MAPK in mouse brain were analyzed by immunoblotting at 2 h.
Time course assay with compound i and m in mouse brain. 1 mg/kg of compound i and m were orally administrated into C57 BL/6J mice and TrkB phosphorylation and its downstream signaling cascades including Akt and MAPK in mouse brain were analyzed by immunoblotting at various time points.
as §2
The compounds were orally injected (1 mg/kg) into C57BL/6J mice. The TrkB and its downstream signaling cascades activation at 2 h were examined after drug administration with mouse brain tissues. […] The downstream p-Akt and p-MAPK tightly coupled to p-TrkB signals.

[3] = primary neurons, 500 nM, time course

| Structure (SMILES) | Akt activation pattern over time (Akt; primary neurons, time course) | TrkB activation (phosphorylation) compared to vehicle control (TrkB [1]) | TrkB activation (phosphorylation) compared to vehicle control (TrkB [1]; listed as compound a) | agonistic effect on TrkB relative to parental 7,8-DHF (TrkB [1]; from titration assays) | minimal concentration triggering TrkB activation (titration assay) (TrkB [1]) | time at which TrkB signal decayed back to baseline (TrkB [1]; [3]) | time to TrkB activation following treatment (TrkB [1]; [3]) | duration of TrkB agonistic effect in animals compared with 7,8-DHF (TrkB [2]) | time of onset of TrkB activation in mouse brain (TrkB [2]) | time of peak TrkB activation in mouse brain (TrkB [2]) | TrkB phosphorylation in mouse brain at 2 h (TrkB [2]) | TrkB activity in mouse brain at 16 h (TrkB [2]) | agonistic activity by p-Akt ELISA in neurons (Akt; 20 min, primary rat cortical neurons (13 DIV)) | TrkB activation in mouse brain, time course, compared with compound i (TrkB [2]; various time points) |
| --- | --- | --- | --- | --- | --- | --- | --- | --- | --- | --- | --- | --- | --- | --- |
| CN(C)c1ccc(-c2cc(=O)c3ccc(O)c(O)c3o2)cc1 [4′-DMA-7,8-DHF, 4′-dimethylamino-7,8-dihydroxyflavone] | temporally coupled to TrkB activation | strongly activated TrkB | activated TrkB better than compounds b to d | about 10 fold | 10 nM | 30 to 180 min | 5 min | sustained longer in animals; also recorded: longer period of TrkB activation in mouse brain | 1 h | 8 h and 4 h | exhibited the strongest TrkB phosphorylation | partially decayed at 16 h |  |  |
| O=c1cc(-c2ccccc2)oc2c(O)c(O)ccc12 [7,8-DHF, 7,8-dihydroxyflavone, reference compound] |  | stimulated TrkB activation |  |  | 100 nM |  |  |  | approximately 2 h |  |  | Elevated TrkB activity was demonstrable even at 16 h |  |  |
| CN(C)c1ccc(-c2cc(=O)c3ccc4nc[nH]c4c3o2)cc1 [compound m, 8-(4-(dimethylamino)phenyl)chromeno[7,8-d]imidazol-6(1H)-one] |  | exhibited strong p-TrkB activity |  |  |  |  |  |  |  |  | exhibited the strongest TrkB phosphorylation |  | possesses the strongest effect in activating TrkB receptor | more robust and sustained TrkB activation than compound i |
